system: T1, GCaMP5-expressing T. gondii; parameters: species or system GCaMP5-expressing Toxoplasma gondii, extracellular; GCaMP5 fluorescence (cytosolic Ca2+) after 100 uM zaprinast in compound-pretreated extracellular parasites, background-subtracted, relative to zaprinast alone; conditions: 100 uM zaprinast stimulation; 10 min pretreatment; mean of two replicates; 0.23 h
T1 construct: whole extracellular parasites expressing GCaMP5 Ca2+ sensor
In short: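 Extracellular GCaMP5-expressing parasites in Ringer's solution were pretreated with compounds (single 10 μM dose, two biological replicates) for 10 min, then stimulated with 100 μM zaprinast at 37 °C for 4 min. Fluorescence read at 485/525 nm, basal subtracted, expressed as fold change relative to zaprinast-only parasites.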

Question: For `CCn1c(-c2ccc[nH]c2=O)nc2cnccc21` [SB-736715], which “fold change in fluorescence relative to zaprinast alone” value is on record?
Answer: 0.9368

Question: Which “fold change in fluorescence relative to zaprinast alone” value does the source give for `Fc1ccc(-c2ncn(C3CCNCC3)c2-c2ccnc(Oc3ccc4c(c3)OCO4)n2)cc1` [SB-250715] here?
Answer: 1.074

Question: How did the “fold change in fluorescence relative to zaprinast alone” value turn out when `COc1cc(/C=N/Nc2ncnc3[nH]ncc23)ccc1O` [GW578748X] was run?
Answer: 0.8277

Question: With `CN1C(=O)C(Nc2ccc(Cl)c(C(=O)O)c2)=C(c2ccc(Cl)cc2)C1=O` [SB-404290] as the molecule, how does the “fold change in fluorescence relative to zaprinast alone” value read?
Answer: 0.783

Question: `O=C(Nc1ccccc1F)NC1CCN(c2ccnc(Nc3ccc(F)cc3)n2)CC1` [GSK1379800A] was tested. Which “fold change in fluorescence relative to zaprinast alone” value did it give?
Answer: 0.9564

Question: How did the “fold change in fluorescence relative to zaprinast alone” value turn out when `COc1ccccc1C1=C(Nc2cccc(O)c2)C(=O)NC1=O` [SB-381891] was run?
Answer: 0.9532

Question: Which “fold change in fluorescence relative to zaprinast alone” value does the source give for `NC(=O)c1ccc2c(-c3ccnc(NCCCO)n3)c(-c3ccc(F)cc3)nn2c1` [GW581744X] here?
Answer: 0.8342

Question: Which “fold change in fluorescence relative to zaprinast alone” value does the source give for `COc1ccc(C2=C(Nc3cccc(O)c3)C(=O)NC2=O)cc1` [SB-390766] here?
Answer: 1.133

Question: Which “fold change in fluorescence relative to zaprinast alone” value does the source give for `COc1ccc(NC(=O)c2ccoc2)cc1-c1ccc(C(=O)NCC2CC2)cc1` [GW810437X] here?
Answer: 1.267

Question: How did the “fold change in fluorescence relative to zaprinast alone” value turn out when `COc1cccc(C2=C(Nc3cc(Cl)c(O)c(Cl)c3)C(=O)NC2=O)c1` [SB-390767] was run?
Answer: 1.06

Question: For `O=C(Nc1c(F)cccc1F)c1cc(C(=O)c2ccccc2F)c[nH]1` [GSK1326180A], which “fold change in fluorescence relative to zaprinast alone” value is on record?
Answer: 0.8808

Question: For `Nc1nccc(-c2c(-c3ccc(F)cc3)ncn2C2CCNCC2)n1` [SB-220025-R], which “fold change in fluorescence relative to zaprinast alone” value is on record?
Answer: 1.112

Question: With `Oc1cccc(Nc2ccnc3cc(-c4ccncc4)ccc23)c1` [GW494601A] as the molecule, how does the “fold change in fluorescence relative to zaprinast alone” value read?
Answer: 1.032

Question: With `CN1CCN(CCCNc2nccc(-c3c(-c4ccc(F)cc4)nn4cc(C(N)=O)ccc34)n2)CC1` [GW622475X] as the molecule, how does the “fold change in fluorescence relative to zaprinast alone” value read?
Answer: 0.5684

Question: Which “fold change in fluorescence relative to zaprinast alone” value does the source give for `O=C(O[C@H]1CN[C@H](C#Cc2cc3ncnc(Nc4ccc(OCc5cccc(F)c5)c(Cl)c4)c3s2)C1)N1CCOCC1` [GW869810X] here?
Answer: 1.08

Question: Which “fold change in fluorescence relative to zaprinast alone” value does the source give for `NS(=O)(=O)c1cccc(-c2ccc3c(NC(=O)C4CC4)n[nH]c3c2)c1` [SB-741905] here?
Answer: 1.374

Question: With `CC(C)c1ccc(-c2cc(-c3c[nH]nc3-c3ccccn3)ccn2)cc1` [GW682841X] as the molecule, how does the “fold change in fluorescence relative to zaprinast alone” value read?
Answer: 1.973

Question: How did the “fold change in fluorescence relative to zaprinast alone” value turn out when `COc1cccc(-c2cc(-c3cn[nH]c3-c3ccccn3)ccn2)c1` [GW680338X] was run?
Answer: 0.8974

Question: `Nc1ncnc2occ(-c3ccc(NC(=O)Nc4cc(C(F)(F)F)cc(C(F)(F)F)c4)cc3)c12` [GW795486X] was tested. Which “fold change in fluorescence relative to zaprinast alone” value did it give?
Answer: 0.08819

Question: How did the “fold change in fluorescence relative to zaprinast alone” value turn out when `COc1ccc(C[C@@H](CN)NC(=O)c2cc(Br)c(-c3ccnc4[nH]ccc34)s2)cc1` [GSK1389063A] was run?
Answer: 0.8633

Question: For `Nc1nonc1-c1nc2cnccc2n1C1CC1` [SB-736302], which “fold change in fluorescence relative to zaprinast alone” value is on record?
Answer: 1.282

Question: How did the “fold change in fluorescence relative to zaprinast alone” value turn out when `CCSc1ccc(-c2nc3n(c2-c2ccncc2)CCC3)cc1` [SKF-106164-A2] was run?
Answer: 1.019

Question: How did the “fold change in fluorescence relative to zaprinast alone” value turn out when `FC(F)(F)c1ccc(-c2nn3ncccc3c2-c2ccnc(Nc3ccc(Cl)c(C(F)(F)F)c3)n2)cc1` [GW829350X] was run?
Answer: 0.9679

Question: For `CN(C)c1ncnc2nc[nH]c12` [SKF-31736], which “fold change in fluorescence relative to zaprinast alone” value is on record?
Answer: 1.087

Question: `CCn1c(-c2ccccc2)nc2cnccc21` [SB-733416] was tested. Which “fold change in fluorescence relative to zaprinast alone” value did it give?
Answer: 1.146

Question: For `Nc1nc(-c2cccnc2)c(-c2ccnc3ccccc23)s1` [GW684083X], which “fold change in fluorescence relative to zaprinast alone” value is on record?
Answer: 0.9409

Question: Which “fold change in fluorescence relative to zaprinast alone” value does the source give for `CC1=C(C(=O)Nc2cc3cn[nH]c3cc2F)C(c2ccc(C(F)(F)F)cc2)CC(=O)N1` (stereo not drawn) [GSK429286A] here?
Answer: 1.046

Question: With `N#Cc1ccc2c(-c3ccnc(NC4CC4)n3)c(-c3ccc(F)cc3)nn2c1` [GW561436X] as the molecule, how does the “fold change in fluorescence relative to zaprinast alone” value read?
Answer: 0.8796

Question: How did the “fold change in fluorescence relative to zaprinast alone” value turn out when `COc1cc(C)c(NC(=O)CN(C)C)cc1Nc1nc(Nc2cccc(F)c2C(N)=O)c2cc[nH]c2n1` [GSK2213727A] was run?
Answer: 1.59

Question: With `CCCCc1nn2ncccc2c1-c1ccnc(Nc2ccc(N3CCN(C)CC3)cc2)n1` [GW684941X] as the molecule, how does the “fold change in fluorescence relative to zaprinast alone” value read?
Answer: 0.4893

Question: For `OCCCNc1nccc(-c2c(-c3ccc(F)cc3)nn3cc(C(F)(F)F)ccc23)n1` [GW569293X], which “fold change in fluorescence relative to zaprinast alone” value is on record?
Answer: 0.8575

Question: How did the “fold change in fluorescence relative to zaprinast alone” value turn out when `COc1c(C(N)=O)cc(-c2ccc(Cl)cc2)cc1-c1ccc(S(N)(=O)=O)cc1` [GSK711701A] was run?
Answer: 1.357

Question: For `Nc1n[nH]c2nnc(-c3ccccc3)c(-c3ccccc3)c12` [GW554060X], which “fold change in fluorescence relative to zaprinast alone” value is on record?
Answer: 1.19

Question: How did the “fold change in fluorescence relative to zaprinast alone” value turn out when `CCn1c(-c2nonc2N)nc2cnc(Oc3cccc(NC(=O)c4ccc(OCCN5CCOCC5)cc4)c3)cc21` [GSK269962B] was run?
Answer: 1.303

Question: `CCCN(CCS(C)(=O)=O)Cc1ccc(-c2ccc3ncnc(Nc4ccc(OCc5cccc(F)c5)c(Cl)c4)c3c2)o1` [GW621823A] was tested. Which “fold change in fluorescence relative to zaprinast alone” value did it give?
Answer: 0.6108

Question: `COc1cccc(-n2cnc3c(N)ncnc32)c1` [SKF-97416] was tested. Which “fold change in fluorescence relative to zaprinast alone” value did it give?
Answer: 1.043

Question: For `CCOc1ccc2c(-c3ccnc(Nc4cccc(C(F)(F)F)c4)n3)cnn2n1` [GW811761X], which “fold change in fluorescence relative to zaprinast alone” value is on record?
Answer: 1.047

Question: For `COc1ccc(Nc2nccc(N3CCC(NC(=O)c4cc5ccccc5s4)C3)n2)cc1` (stereo not drawn) [GSK1379738A], which “fold change in fluorescence relative to zaprinast alone” value is on record?
Answer: 0.9419

Question: How did the “fold change in fluorescence relative to zaprinast alone” value turn out when `c1ccc(-c2ccc3c(Nc4ccc5[nH]ncc5c4)ccnc3c2)nc1` [GW440137A] was run?
Answer: 1.678

Question: Which “fold change in fluorescence relative to zaprinast alone” value does the source give for `COc1cc2ncnc(Nc3ccc(C)c(O)c3)c2cc1OC` [GW410563A] here?
Answer: 1.297

Question: How did the “fold change in fluorescence relative to zaprinast alone” value turn out when `CC(C)COC(=O)c1ccc2c(c1)/C(=C/Nc1ccc(S(N)(=O)=O)cc1)C(=O)N2` [GW416981X] was run?
Answer: 1.146

Question: With `CNC(=O)c1cncc(/C=C/c2ccccc2C)c1` [GW445015X] as the molecule, how does the “fold change in fluorescence relative to zaprinast alone” value read?
Answer: 1.264

Question: With `Cc1ccc(NC(=O)c2ccoc2)cc1-c1ccc(C(=O)NCC2CC2)cc1` [GW743024X] as the molecule, how does the “fold change in fluorescence relative to zaprinast alone” value read?
Answer: 1.222

Question: `OCCCNc1nccc(-c2c(-c3cccc(C(F)(F)F)c3)nn3cc(C(F)(F)F)ccc23)n1` [GW630813X] was tested. Which “fold change in fluorescence relative to zaprinast alone” value did it give?
Answer: 1.109

Question: How did the “fold change in fluorescence relative to zaprinast alone” value turn out when `COc1ccc(Nc2nccc(N3CCC(NC(=O)c4cccc(C#N)c4)C3)n2)cc1` (stereo not drawn) [GSK1379730A] was run?
Answer: 0.96

Question: Which “fold change in fluorescence relative to zaprinast alone” value does the source give for `Nc1cccc(-c2ccc3c(N)n[nH]c3c2)c1` [GSK2193613A] here?
Answer: 0.7898

Question: `Nc1nc(-c2ccc(F)cc2)c(-c2ccc3ncccc3n2)s1` [GW785804X] was tested. Which “fold change in fluorescence relative to zaprinast alone” value did it give?
Answer: 1.356

Question: `O=C(NC1CCN(c2ccnc(Nc3ccc(F)cc3)n2)C1)c1cc2ccccc2s1` (stereo not drawn) [GSK1379716A] was tested. Which “fold change in fluorescence relative to zaprinast alone” value did it give?
Answer: 1.103

Source: publication PMC4850295, “Using a Genetically Encoded Sensor to Identify Inhibitors of Toxoplasma gondii Ca^2+ Signaling” (The Journal of Biological Chemistry, 2016)
